# Assay results reported in patent publication US7838695B2, “Neuroactive substance and uses of one such substance” (Universite de Nantes, priority 2003, dated 2010).
# “Also recorded” adds a separate entry of the source.
# Tests used:
# [1] = system: Phormia terrae novae larvae; experiment: Neuroactivity test by injection in Diptera larvae; format: in vivo
# Procedure: The neuroactivity of the substance according to formula (I) was then tested by injecting in Diptera larvae. Within this scope, the inventors used Phormia terrae novae species Cyloraphe larvae at larval stage III, just before the imago stage enabling metamorphosis to a pupa or nymph. […] The product is injected using a precision micro-syringe fitted with a bevelled hypodermic needle. The needle is inserted into the last abdominal segment of the animal on the dorsal side. The injection is deemed successful if the larva is still mobile at the tip of the needle. In this type of test, contraction or relaxation for at least 5 seconds is defined as a positive response, but the intensity and duration are dose-dependent while the absence of any symptom for 10 min represents a negative response. Substance (II) was tested by injecting a single 350 μg dose of product per larva (mean larva weight 70 mg), by injecting 7 A1 of a 50 mg/ml solution of the product in the 85-15 v/v water:DMSO mixture. This concentration was then diluted by half until no larval activity was detected.
# cockroach DUM neurons [2] = experiment: Electrical activity of DUM neurons activated by injecting depolarising current; format: cell-based, Periplaneta americana
# Procedure: A second experiment was conducted on dorsal unpaired median neurons (DUM neurons) from the central nervous system of cockroaches (Periplaneta americana). In particular, these neurons secrete a biogenous amine, octopamine, a neuromediator wherein the chemical structure is similar to […] in vertebrates. They represent a good study model as they display electrophysiological properties similar to those of dopaminergic neurons in vertebrates. These DUM neurons are isolated from the medio-dorsal line of the last terminal abdominal ganglion of the nerve chain of adult male cockroaches, by means of enzyme digestion and mechanical dissociation, according to the technique described by […] et al (J. Exp. Biol., 1989, 144; 535-549). The neurons isolated in this way are kept in culture at 29° C. for 24 hrs before testing. The whole cell configuration patch-clamp technique is used to measure the electrical activity and the calcium currents (imposed potential and/or current conditions) according to the model described by Grolleau and […]. Neurophysiol. 1995, 73; 160-171). Experiments were also conducted on an electrical activity activated by injecting a level of depolarising current controlled in amplitude and duration (FIG. 6). The results obtained under these conditions are in agreement with the experiments conducted on spontaneous activity. […]
# [3] = system: axonal cockroach sodium and potassium channels; experiment: Isolated giant axon under imposed potential and imposed current; format: cell-based, Periplaneta americana
# Procedure: Firstly, the neuronal sodium and potassium channels were studied. These channels are involved in action potential generation. This study was conducted on cockroach (Periplaneta americana) giant axons. The giant axon of these cockroaches was isolated in ventral abdominal nerve chain connective tissue. During the experiment, the axon is immersed in physiological fluid. The experiment is performed under imposed potential and imposed current in the absence and presence of the substance according to formula (II).
# [4] = system: high voltage activated calcium channels (HVA); experiment: HVA calcium current in DUM neurons (patch-clamp); format: cell-based, Periplaneta americana
# [5] = system: maintained LVA calcium channels (mLVA); experiment: mLVA calcium current in DUM neurons in the presence of nickel chloride (patch-clamp); format: cell-based, Periplaneta americana; details: in the presence of 100 μm nickel chloride
# [6] = system: transient LVA calcium channels (tLVA); experiment: tLVA calcium current in DUM neurons (overall LVA minus mLVA); format: cell-based, Periplaneta americana
# [7] = system: low voltage activated calcium channels (LVA); experiment: Overall LVA calcium current in DUM neurons (patch-clamp); format: cell-based, Periplaneta americana; details: +50 mV depolarising pulse from −100 mV reference potential
# cockroach DUM neurons [8] = experiment: Spontaneous pacemaker electrical activity of DUM neurons (whole cell patch-clamp); format: cell-based, Periplaneta americana
# Procedure: A second experiment was conducted on dorsal unpaired median neurons (DUM neurons) from the central nervous system of cockroaches (Periplaneta americana). In particular, these neurons secrete a biogenous amine, octopamine, a neuromediator wherein the chemical structure is similar to […] in vertebrates. They represent a good study model as they display electrophysiological properties similar to those of dopaminergic neurons in vertebrates. These DUM neurons are isolated from the medio-dorsal line of the last terminal abdominal ganglion of the nerve chain of adult male cockroaches, by means of enzyme digestion and mechanical dissociation, according to the technique described by […] et al (J. Exp. Biol., 1989, 144; 535-549). The neurons isolated in this way are kept in culture at 29° C. for 24 hrs before testing. The whole cell configuration patch-clamp technique is used to measure the electrical activity and the calcium currents (imposed potential and/or current conditions) according to the model described by Grolleau and […]. Neurophysiol. 1995, 73; 160-171).
compound,measurement,setting,value
"CC(=O)O[C@@H]1CC[C@@]23O[C@@H]2[C@H](O)C[C@@H](C)[C@]3(C)[C@@H]1C(C)=O [substance according to formula (II), 6S-acetyl-4R,5R-dimethyl-1R(10S)-epoxy-2R-hydroxy-7R-acetoxydecahydronaphthalene]",MAC,[1]; calculated with molecular weight 296 g per mole,approximately 1 mM/mg of larvae
same,minimum active concentration on diptera larvae,"[1]; injection into larvae, halving dilutions until no larval activity",3.1 μg per μl and per 10 mg of larvae
same,action potential amplitude or duration,cockroach DUM neurons [2],No change
same,discharge frequency,cockroach DUM neurons [2],increase in the discharge frequency
same,activity on axonal sodium and potassium channels (change on the action potential),[3],no activity
same,reduction of HVA calcium current amplitude,"[4]; +90 mV depolarising pulse from −100 mV reference potential, n=7",9%
same,amplitude of the HVA current,[4]; in the presence of 100 μm nickel chloride,neither the amplitude of the mLVA current (FIGS. 10 and 11) or that of HVA are modified
same,amplitude of the mLVA current,[5],neither the amplitude of the mLVA current (FIGS. 10 and 11) or that of HVA are modified
same,action on tLVA calcium channel,[6],specific activator; also recorded: specific action; also recorded: potentiating
same,maintained component measured at the end of the depolarising pulse,[7],not affected
same,increase of amplitude of the overall LVA calcium current,[7]; n=7,81%
same,action potential amplitude,cockroach DUM neurons [8]; 4-AP 2 mM,remains unchanged
same,post-hyperpolarisation phase,cockroach DUM neurons [8]; 4-AP 2 mM,increased
same,pre-depolarisation slope,cockroach DUM neurons [8]; 4-AP 2 mM,higher
same,action potential frequency increased by a factor,"cockroach DUM neurons [8]; 100 μm substance, in the presence of 4-AP 2 mM",2.1
